# In patent US7183415B2, “Quinoline compound” (Takeda Pharmaceutical Company Limited, priority 2001, dated 2007):
row,melting point,Structure (SMILES)
1,258 to 260 °C,"Cc1c(NC(=O)c2ccc(-c3ccc(F)cc3)cc2)ccc2cc(CN3CCC(CC(N)=O)CC3)cnc12 [Example 200, N-(3-{[4-(2-amino-2-oxoethyl)-1-piperidinyl]methyl}-8-methyl-7-quinolinyl)-4′-fluoro[1,1′-biphenyl]-4-carboxamide]"
2,179 °C,"Cc1cc2cc(CN3CCC(CCCC(=O)N4CCCCC4)CC3)cnc2cc1NC(=O)c1ccc(-c2ccc(F)cc2)cc1 [Example 259, 4′-fluoro-N-[6-methyl-3-({4-[4-oxo-4-(1-piperidinyl)butyl]-1-piperidinyl}methyl)-7-quinolinyl][1,1′-biphenyl]-4-carboxamide]"
3,160 to 161 °C,"COc1ccc(-c2ccc(C(=O)Nc3ccc4cc(CN5CCCCCC5)cnc4c3C)cc2F)cc1 (hydrate or solvate) [Example 190, N-[3-(1-azepanylmethyl)-8-methyl-7-quinolinyl]-2-fluoro-4′-methoxy[1,1′-biphenyl]-4-carboxamide]"
4,250 °C,"CCNC(=O)CC1CCN(Cc2cnc3cc(NC(=O)c4ccc(-c5ccc(Cl)cc5)cc4)ccc3c2)CC1 [Example 91, 4′-chloro-N-[3-({4-[2-(ethylamino)-2-oxoethyl]-1-piperidinyl}methyl)-7-quinolinyl][1,1′-biphenyl]-4-carboxamide]"
5,210 to 211 °C,"Cc1c(NC(=O)c2ccc(-c3ccc(Cl)s3)cc2)ccc2cc(CN3CCCC3)cnc12 [Example 107, 4-(5-chloro-2-thienyl)-N-[8-methyl-3-(1-pyrrolidinylmethyl)-7-quinolinyl]benzamide]"
6,177 to 179 °C,"Cc1ccc(-c2ccc(C(=O)Nc3ccc4cc(CN5CCCC5)cnc4c3C)cc2)cc1 [Example 20, 4′-methyl-N-[8-methyl-3-(1-pyrrolidinylmethyl)-7-quinolinyl][1,1′-biphenyl]-4-carboxamide]"
7,207 to 209 °C,"Cc1c(NC(=O)c2ccc(-c3ccc(F)cc3)nc2)ccc2cc(CN3CCCC3)cnc12 [Example 97, 6-(4-fluorophenyl)-N-[8-methyl-3-(1-pyrrolidinylmethyl)-7-quinolinyl]nicotinamide]"
8,154 to 156 °C,"Cc1c(NC(=O)c2ccc(-c3ccc(F)cc3)cc2)ccc2cc(CN3CCC(CCCC(=O)N4CCCCC4)CC3)cnc12 [Example 211, 4′-fluoro-N-[8-methyl-3-({4-[4-oxo-4-(1-piperidinyl)butyl]-1-piperidinyl}methyl)-7-quinolinyl][1,1′-biphenyl]-4-carboxamide]"
9,222 to 224 °C,"O=C(Nc1ccc2cc(CN3CCCC3)cnc2c1)N1CCC(c2ccccc2)CC1 [Example 12, 4-phenyl-N-[3-(1-pyrrolidinylmethyl)-7-quinolinyl]-1-piperidine carboxamide]"
10,243 to 245 °C,"CCNC(=O)CC1CCN(Cc2cnc3c(C)c(NC(=O)c4ccc(-c5ccc(F)cc5)cc4)ccc3c2)CC1 [Example 203, N-[3-({4-[2-(ethylamino)-2-oxoethyl]-1-piperidinyl}methyl)-8-methyl-7-quinolinyl]-4′-fluoro[1,1′-biphenyl]-4-carboxamide]"
11,151 to 152 °C,"Cc1cccc(-c2ccc(C(=O)Nc3ccc4cc(CN5CCCC5)cnc4c3C)cc2)c1 [Example 109, 3′-methyl-N-[8-methyl-3-(1-pyrrolidinylmethyl)-7-quinolinyl][1,1′-biphenyl]-4-carboxamide]"
12,208 to 210 °C,"O=C(Nc1ccc2cc(CN3CCCC3)cnc2c1)c1ccc(-c2ccccc2)nc1 [Example 7, 6-phenyl-N-[3-(1-pyrrolidinylmethyl)-7-quinolinyl]nicotinamide]"
13,128 to 129 °C,"Cc1c(NC(=O)c2ccc(-c3ccccc3Cl)cc2)ccc2cc(CN3CCCC3)cnc12 (hydrate or solvate) [Example 108, 2′-chloro-N-[8-methyl-3-(1-pyrrolidinylmethyl)-7-quinolinyl][1,1′-biphenyl]-4-carboxamide]"
14,181 to 182 °C,"Cc1c(NC(=O)c2ccc(-c3ccc4c(c3)OCO4)cc2F)ccc2cc(CN3CCCC3)cnc12 (hydrate or solvate) [Example 141, 4-(1,3-benzodioxol-5-yl)-2-fluoro-N-[8-methyl-3-(1-pyrrolidinylmethyl)-7-quinolinyl]benzamide]"
15,189 to 190 °C,"Cc1c(NC(=O)c2ccc(-c3ccc(F)cc3)cc2)ccc2cc(CN3CCC(CC(=O)N4CCCCC4)CC3)cnc12 [Example 205, 4′-fluoro-N-[8-methyl-3-({4-[2-oxo-2-(1-piperidinyl)ethyl]-1-piperidinyl}methyl)-7-quinolinyl][1,1′-biphenyl]-4-carboxamide]"
16,193 to 196 °C,"O=C(Nc1ccc2cc(CN3CCC(CCO)CC3)cnc2c1)c1ccc(-c2ccc(F)cc2)cc1 [Example 46, 4′-fluoro-N-(3-{[4-(2-hydroxyethyl)-1-piperidinyl]methyl}-7-quinolinyl)[1,1′-biphenyl]-4-carboxamide]"
17,199 to 201 °C,"Cc1c(NC(=O)c2ccc(-c3ccc(F)c(F)c3)cc2)ccc2cc(CN3CCCC3)cnc12 [Example 102, 3′,4′-difluoro-N-[8-methyl-3-(1-pyrrolidinylmethyl)-7-quinolinyl][1,1′-biphenyl]-4-carboxamide]"
18,185 to 188 °C,"Cc1cc2cc(CN3CCCCC3)cnc2cc1NC(=O)c1ccc(-c2ccc(F)cc2)cc1 [Example 250, 4′-fluoro-N-[6-methyl-3-(1-piperidinylmethyl)-7-quinolinyl][1,1′-biphenyl]-4-carboxamide]"

row,melting point,Structure (SMILES)
1,162 to 163 °C,"Cc1c(NC(=O)c2ccc(-c3ccc(Cl)cc3Cl)cc2F)ccc2cc(CN3CCCC3)cnc12 (hydrate or solvate) [Example 137, 2′,4′-dichloro-3-fluoro-N-[8-methyl-3-(1-pyrrolidinylmethyl)-7-quinolinyl][1,1′-biphenyl]-4-carboxamide]"
2,227 to 230 °C,"CCNC(=O)CCC1CCN(Cc2cnc3cc(NC(=O)c4ccc(-c5ccc(F)cc5)cc4)c(C)cc3c2)CC1 [Example 255, N-[3-({4-[3-(ethylamino)-3-oxopropyl]-1-piperidinyl}methyl)-6-methyl-7-quinolinyl]-4′-fluoro[1,1′-biphenyl]-4-carboxamide]"
3,202 to 203 °C,"Cc1c(NC(=O)c2ccc(-c3cc4ccccc4o3)cc2F)ccc2cc(CN3CCCC3)cnc12 [Example 142, 4-(1-benzofuran-2-yl)-2-fluoro-N-[8-methyl-3-(1-pyrrolidinylmethyl)-7-quinolinyl]benzamide]"
4,177 °C,O=C(Nc1ccc2cc(CN3CCCC3)cnc2c1)c1ccc(-c2ccc(F)cc2)cc1F [Example 86]
5,202 °C,"O=C(Nc1ccc2cc(CN3CCCCCC3)cnc2c1)c1ccc(-c2ccc(F)cc2)cc1 [Example 29, N-[3-(1-azepanylmethyl)-7-quinolinyl]-4′-fluoro[1,1′-biphenyl]-4-carboxamide]"
6,158 to 160 °C,"CCN(CC)C(=O)CC1CCN(Cc2cnc3c(C)c(NC(=O)c4ccc(-c5ccc(F)cc5)cc4)ccc3c2)CC1 [Example 204, N-[3-({4-[2-(diethylamino)-2-oxoethyl]-1-piperidinyl}methyl)-8-methyl-7-quinolinyl]-4′-fluoro[1,1′-biphenyl]-4-carboxamide]"
7,178 to 180 °C,"Cc1ccc(-c2ccc(C(=O)Nc3ccc4cc(CN5CCCC5)cnc4c3C)cn2)cc1 [Example 94, 6-(4-methylphenyl)-N-[8-methyl-3-(1-pyrrolidinylmethyl)-7-quinolinyl]nicotinamide]"
8,217 to 220 °C,"O=C(Nc1ccc2cc(CN3CCCC3)cnc2c1)c1ccc(-c2ccc(Cl)cc2)cc1 [Example 6, 4′-chloro-N-[3-(1-pyrrolidinylmethyl)-7-quinolinyl][1,1′-biphenyl]-4-carboxamide]"
9,170 °C,"Cc1cc2cc(CN3CCCCCC3)cnc2cc1NC(=O)c1ccc(-c2ccc(F)cc2)cc1F [Example 244, N-[3-(1-azepanylmethyl)-6-methyl-7-quinolinyl]-3,4′-difluoro[1,1′-biphenyl]-4-carboxamide]"
10,184 to 186 °C,"COc1ccc(-c2ccc(C(=O)Nc3cc4ncc(CN5CCCC5)cc4cc3F)cc2)cc1 [Example 53, N-[6-fluoro-3-(1-pyrrolidinylmethyl)-7-quinolinyl]-4′-methoxy[1,1′-biphenyl]-4-carboxamide]"
11,186 to 187 °C,"Cc1c(NC(=O)c2ccc(-c3ccc(F)cc3)cc2F)ccc2cc(CN3CCCCC3)cnc12 [Example 170, 3,4′-difluoro-N-[8-methyl-3-(1-piperidinylmethyl)-7-quinolinyl][1,1′-biphenyl]-4-carboxamide]"
12,186 to 188 °C,"O=C(Nc1ccc2cc(CN3CCCC3)cnc2c1F)c1ccc(-c2ccccc2)cc1 [Example 71, N-[8-fluoro-3-(1-pyrrolidinylmethyl)-7-quinolinyl][1,1′-biphenyl]-4-carboxamide]"
13,257 °C,"CNC(=O)C1CCN(Cc2cnc3cc(NC(=O)c4ccc(-c5ccc(F)cc5)cc4)c(C)cc3c2)CC1 [Example 275, 1-[(7-{[(4′-fluoro-1,1′-biphenyl-4-yl)carbonyl]amino}-6-methyl-3-quinolinyl)methyl]-N-methylpiperidine-4-carboxamide]"
14,184 to 186 °C,"Cc1c(NC(=O)c2ccc(-c3ccccc3)cc2)ccc2cc(CN3CCCC3)cnc12 [Example 17, N-[8-methyl-3-(1-pyrrolidinylmethyl)-7-quinolinyl][1,1′-biphenyl]-4-carboxamide]"
15,203 to 205 °C,"Cc1c(NC(=O)N2CCC(c3ccc(Cl)cc3)CC2)ccc2cc(CN3CCCC3)cnc12 [Example 98, 4-(4-chlorophenyl)-N-[8-methyl-3-(1-pyrrolidinylmethyl)-7-quinolinyl]-1-piperidine carboxamide]"
16,212 °C (dec.),"COc1ccc(-c2ccc(C(=O)Nc3ccc4cc(CN5CCCCCC5)cnc4c3)cc2)cc1 [Example 30, N-[3-(1-azepanylmethyl)-7-quinolinyl]-4′-methoxy[1,1′-biphenyl]-4-carboxamide]"
17,162 to 163 °C,"Cc1c(NC(=O)c2ccc(-c3ccc(F)cc3)c(F)c2)ccc2cc(CN3CCCCCC3)cnc12 (hydrate or solvate) [Example 189, N-[3-(1-azepanylmethyl)-8-methyl-7-quinolinyl]-2,4′-difluoro[1,1′-biphenyl]-4-carboxamide]"
